Each structure is given as a SMILES string.

This assay has as its target T1, sodium-proton exchanger of subtype 3 (NHE3) (Homo sapiens, UniProt P48764).
T1 construct: expressed in transfected cells
T1 sequence (P48764 26-834): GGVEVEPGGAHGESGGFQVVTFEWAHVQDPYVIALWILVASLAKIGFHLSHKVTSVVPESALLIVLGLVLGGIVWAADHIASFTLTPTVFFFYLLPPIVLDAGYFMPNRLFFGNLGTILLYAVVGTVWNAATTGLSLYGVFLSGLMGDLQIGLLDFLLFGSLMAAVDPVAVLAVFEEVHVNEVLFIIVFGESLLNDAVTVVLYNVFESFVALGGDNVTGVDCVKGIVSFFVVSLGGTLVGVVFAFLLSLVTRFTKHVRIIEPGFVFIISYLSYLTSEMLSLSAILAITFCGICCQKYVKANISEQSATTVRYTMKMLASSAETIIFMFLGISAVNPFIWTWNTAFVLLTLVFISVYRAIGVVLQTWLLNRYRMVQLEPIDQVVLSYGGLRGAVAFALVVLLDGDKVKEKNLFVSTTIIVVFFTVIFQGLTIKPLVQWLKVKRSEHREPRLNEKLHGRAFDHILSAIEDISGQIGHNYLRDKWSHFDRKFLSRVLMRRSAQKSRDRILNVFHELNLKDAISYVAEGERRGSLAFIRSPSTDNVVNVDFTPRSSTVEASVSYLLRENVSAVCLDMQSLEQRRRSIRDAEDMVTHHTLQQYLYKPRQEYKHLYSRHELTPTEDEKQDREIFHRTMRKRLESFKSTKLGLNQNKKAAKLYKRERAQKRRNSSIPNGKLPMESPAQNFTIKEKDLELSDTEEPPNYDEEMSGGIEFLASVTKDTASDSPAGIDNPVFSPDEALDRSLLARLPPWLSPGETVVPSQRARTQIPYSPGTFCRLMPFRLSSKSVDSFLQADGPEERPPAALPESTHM
Put plainly: Recovery of intracellular pH (pHi) after acidification in LAP1 cells stably expressing NHE3 (BCECF fluorescence, FLIPR). The format is cell-based. The note with it: LAP1 cells stably expressing NHE3; pH recovery after acidification; range 1 is % inhibition at 10 μM; read-out: Activity range (inhibitory effect on NHE3).

With `Cc1ccc(F)c(O[C@H]2c3ccccc3CC[C@@H]2N2CCC[C@@H](N)C2)c1` (racemic) [Example 43, (R)-1-[rac-trans-(1,2)-1-(2-fluoro-5-methylphenoxy)-1,2,3,4-tetrahydronaphthalen-2-yl]piperidin-3-ylamine], the inhibition at 10 µM lay within 20 to 50%. Take `NS(=O)(=O)c1ccc(O[C@@H]2c3ccccc3C[C@H]2NC2CCC2)c(F)c1` (racemic) [Example 709, 4-(rac-trans-(1,2)-2-Cyclobutylamino-indan-1-yloxy)-3-fluoro-benzenesulfonamide]: the IC50 is < 1000 nM. Take `N[C@H]1CCCN([C@H]2CCc3ccccc3[C@@H]2Oc2ccc(Br)cc2-c2cc[nH]n2)C1` (racemic) [Example 203, (S)-1-{rac-trans-(1,2)-1-[4-bromo-2-(1H-pyrazol-3-yl)phenoxy]-1,2,3,4-tetrahydronaphthalen-2-yl}piperidin-3-ylamine]: the inhibition at 10 µM lay in the range of 20 to 50%. For the compound `N#Cc1ccc(O[C@H]2c3ccccc3CC[C@@H]2N2CCC[C@@H](N)C2)c(F)c1F` (racemic) [Example 509, 4-[rac-trans-(1,2)-2-((R)-3-aminopiperidin-1-yl)-1,2,3,4-tetrahydronaphthalen-1-yloxy]-2,3-difluorobenzonitrile], the IC50 was in the range of 1000 to 10000 nM. In the case of `Cc1cc(O[C@H]2c3ccccc3C[C@@H]2N2CCCC2)ccc1S(C)(=O)=O` (racemic) [Example 271, 1-[rac-trans-(1,2)-1-(4-methanesulfonyl-3-methylphenoxy)indan-2-yl]pyrrolidine], the IC50 is 1000 to 10000 nM. Still for that read-out and setting: in the case of `N#Cc1ccc(O[C@H]2c3cc(Cl)cc(Cl)c3C[C@@H]2N2CC[C@@H](O)C2)c(F)c1` [Example 554, 4-[trans-(1S,2S)-4,6-dichloro-2-((R)-3-hydroxypyrrolidin-1-yl)indan-1-yloxy]-3-fluorobenzonitrile] it was 1000 to 10000 nM. On the same count and under the same terms, in the case of `N[C@@H]1CCCN([C@H]2Cc3c(Cl)cc(Cl)cc3[C@@H]2Oc2ccc(-n3ccnc3)cc2)C1` [Example 98, (R)-1-[trans-(1S,2S)-4,6-dichloro-1-(4-imidazol-1-ylphenoxy)indan-2-yl]piperidin-3-ylamine] it was < 1000 nM. On the same count and under the same terms, for `CC(=O)Nc1cccc(O[C@H]2c3cc(F)cc(Cl)c3C[C@@H]2N2CCCC2)c1` (racemic) [Example 651, N-[3-(rac-trans-(1,2)-4-chloro-6-fluoro-2-pyrrolidin-1-ylindan-1-yloxy)phenyl]acetamide] the value was 1000 to 10000 nM.

Consider `N#Cc1ccc(O[C@H]2c3ccccc3CC[C@@H]2N2CCC[C@H](N)C2)cc1` (racemic) [Example 535, 4-[rac-trans-(1,2)-2-((S)-3-aminopiperidin-1-yl)-1,2,3,4-tetrahydronaphthalen-1-yloxy]benzonitrile], for which the IC50 was in the range of 1000 to 10000 nM. Consider `NS(=O)(=O)c1ccc(O[C@H]2c3cc(Cl)cc(Cl)c3C[C@@H]2N2CCC(F)(F)CC2)cc1` [Example 484, 4-[(1S,2S)-4,6-dichloro-2-(4,4-difluoropiperidin-1-yl)indan-1-yloxy]benzenesulfonamide], for which the inhibition at 10 µM was in the range of 20 to 50%. Turning to `Cc1nnc(C)n1-c1ccc(O[C@H]2c3cc(F)cc(F)c3C[C@@H]2N2CC[C@@H](O)C2)c(Cl)c1` [Example 109, (R)-1-{(1S,2S)-1-[2-chloro-4-(3,5-dimethyl-[1,2,4]triazol-4-yl)phenoxy]-4,6-difluoroindan-2-yl}pyrrolidin-3-ol], the IC50 is < 1000 nM. The same measure, in the same setting: for `N[C@@H]1CCCN([C@@H]2Cc3ccccc3[C@H]2Oc2cccc(N3CCCCC3)c2)C1` (racemic) [Example 59, (R)-1-[rac-trans-(1,2)-1-(3-piperidin-1-ylphenoxy)indan-2-yl]piperidin-3-ylamine] the value was 1000 to 10000 nM.

As to `O=C1CNC(=O)N1c1ccc(F)c(O[C@H]2c3cc(Cl)cc(F)c3C[C@@H]2N2CC[C@@H](O)C2)c1` [Example 421, 3-{3-[(1S,2S)-6-chloro-4-fluoro-2-((R)-3-hydroxypyrrolidin-1-yl)indan-1-yloxy]-4-fluorophenyl}imidazolidine-2,4-dione], the IC50 was 1000 to 10000 nM.

Regarding `N#Cc1ccc(O[C@H]2c3cc(Cl)cc(Cl)c3C[C@@H]2N2CCNCC2)c(F)c1` [Example 456, 4-((1S,2S)-4,6-dichloro-2-piperazin-1-ylindan-1-yloxy)-3-fluorobenzonitrile], the IC50 was < 1000 nM. Take `O=C(O)c1ccc(O[C@H]2c3ccccc3C[C@@H]2CN2CCCC2)cc1Cl` (racemic) [Example 390, 2-chloro-4-(2-pyrrolidin-1-ylmethylindan-1-yloxy)benzoic acid]: the inhibition at 10 µM is 20 to 50%. Same read-out and setting: for `CS(=O)(=O)c1ccc(O[C@H]2c3cc(Cl)cc(Cl)c3C[C@@H]2N2CCN3CCC[C@H]3C2)cc1` [Example 208, (S)-2-[(S)-4-(S)-chloro-6-chloro-1-(4-methanesulfonylphenoxy)indan-2-yl]octahydropyrrolo[1,2-a]pyrazine] the value was 20 to 50%.

In the case of `Clc1cc(Cl)c2c(c1)[C@H](Oc1ccc(-n3cncn3)cc1)[C@@H](N1CC3CNCC3C1)C2` (mixture of isomers) [Example 377, 2-[rac-trans-(1,2)-4,6-dichloro-1-(4-[1,2,4]triazol-1-ylphenoxy)indan-2-yl]octahydropyrrolo[3,4-c]pyrrole], the IC50 is < 1000 nM. Still for that read-out and setting: in the case of `CS(=O)(=O)c1ccc(O[C@H]2c3ccccc3CC[C@@H]2N2CCC[C@H](N)C2)cc1` (racemic) [Example 182, (S)-1-[rac-trans-(1,2)-1-(4-methanesulfonylphenoxy)-1,2,3,4-tetrahydronaphthalen-2-yl]piperidin-3-ylamine] it was 1000 to 10000 nM; in that of `Cc1nnc(C)n1-c1ccc(O[C@H]2c3cc(Cl)cc(Cl)c3C[C@@H]2N2CCCN(C)CC2)c(F)c1` [Example 346, 1-{trans-(1S,2S)-4,6-dichloro-1-[4-(3,5-dimethyl-[1,2,4]triazol-4-yl)-2-fluorophenoxy]indan-2-yl}-4-methyl-[1,4]diazepane], < 1000 nM. On the same count and under the same terms, in the case of `N[C@@H]1CCCN([C@H]2Cc3c(Cl)cc(Cl)cc3[C@@H]2Oc2ccc(S(N)(=O)=O)cc2)C1` [Example 480, 4-[(1S,2S)-2-((R)-3-aminopiperidin-1-yl)-4,6-dichloroindan-1-yloxy]benzenesulfonamide] it was < 1000 nM.

On to `N[C@H]1CCCN([C@H]2CCc3ccccc3[C@@H]2Oc2ccc(Cl)cc2)C1` (racemic) [Example 175, (S)-1-[rac-trans-(1,2)-1-(4-chlorophenoxy)-1,2,3,4-tetrahydronaphthalen-2-yl]piperidin-3-ylamine], for which the inhibition at 10 µM lay in the range of 20 to 50%. `CCN(CC)[C@@H]1Cc2ccccc2[C@H]1Oc1cccc(N2CCNCC2)c1` (racemic) [Example 626, Diethyl-[rac-trans-(1,2)-1-(3-piperazin-1-ylphenoxy)indan-2-yl]amine]: the IC50 lay within 1000 to 10000 nM. Same read-out and setting: in the case of `Cc1nnnn1-c1ccc(O[C@H]2c3cc(Cl)cc(Cl)c3C[C@@H]2N2CC[C@@H](O)C2)cc1` [Example 112, (R)-1-{(1S,2S)-4,6-dichloro-1-[4-(5-methyltetrazol-1-yl)phenoxy]indan-2-yl}pyrrolidin-3-ol] it was 1000 to 10000 nM; in that of `CCCC1(N)CCCN([C@H]2Cc3c(Cl)cc(Cl)cc3[C@@H]2Oc2ccc(S(C)(=O)=O)cc2)C1` (stereo partly drawn) [Example 299, 1-[trans-(1S,2S)-4,6-dichloro-1-(4-methanesulfonylphenoxy)indan-2-yl]-3-propylpiperidin-3-ylamine], < 1000 nM.

For the compound `Cc1nnc(C)n1-c1ccc(O[C@H]2c3cc(Cl)cc(Cl)c3C[C@@H]2N2CC[C@H](N)C2)cc1` [Example 207, (S)-1-{trans-(1S,2S)-4,6-dichloro-1-[4-(3,5-dimethyl-[1,2,4]triazol-4-yl)phenoxy]indan-2-yl}pyrrolidin-3-ylamine], the IC50 was < 1000 nM. Turning to `Clc1ccc2cccc(O[C@H]3c4ccccc4CC[C@@H]3N3CCOCC3)c2n1` (racemic) [Example 395, 2-chloro-8-(rac-trans-(1,2)-2-morpholin-4-yl-1,2,3,4-tetrahydronaphthalen-1-yloxy)quinoline], the inhibition at 10 µM was in the range of 20 to 50%. `N[C@@H]1CCCN([C@H]2CCc3ccccc3[C@@H]2Oc2ccccc2Br)C1` (racemic) [Example 36, (R)-1-[rac-trans-(1,2)-1-(2-bromophenoxy)-1,2,3,4-tetrahydronaphthalen-2-yl]piperidin-3-ylamine]: the inhibition at 10 µM fell in the range of 20 to 50%. As for `N#Cc1cc(Cl)ccc1O[C@H]1c2ccccc2CC[C@@H]1N1CCC[C@H](N)C1` (racemic) [Example 371, 2-[rac-trans-(1,2)-2-((S)-3-aminopiperidin-1-yl)-1,2,3,4-tetrahydronaphthalen-1-yloxy]-5-chlorobenzonitrile], the inhibition at 10 µM lay in the range of 20 to 50%.

With `N[C@@H]1CCCN([C@@H]2Cc3ccccc3[C@H]2Oc2ccc3ccncc3c2)C1` (racemic) [Example 85, (R)-1-[rac-trans-(1,2)-1-(isoquinolin-7-yloxy)indan-2-yl]piperidin-3-ylamine], the IC50 fell in the range of 1000 to 10000 nM.

The values are drawn from patent US8822449B2, “Substituted aminoindanes and analogs thereof, and the pharmaceutical use thereof” (Sanofi, priority 2008, dated 2014).
